# Experimental data published in PMC7037862, “Tricyclic Nucleobase Analogs and Their Ribosides as Substrates and Inhibitors of Purine-Nucleoside Phosphorylases III. Aminopurine Derivatives” (Molecules, 2020).
# Legend:
# E. coli PNP [1] = biological target: T1, E. coli PNP (Escherichia coli, UniProt P0ABP8); assay: Fluorescence titration of E. coli PNP with ligand (enzyme-ligand complexes); assay type: binding; settings: 40 mM phosphate buffer, pH 7, 20 °C; protein 11 μM per subunit
# T1 construct: made in house; host or cells: E. coli
# Procedure: Additionally, the fluorescence excitation spectra reveal fluorescence energy transfer (FRET) from the protein to the complexed ligand, since they show marked enhancement in the region 270–280 nm, where the tyrosine residues of the PNP molecule absorb (Figure 10).
# Figure 10 Changes in fluorescence excitation (a) and emission spectra (b), observed during the titration of E. coli PNP with N^2,3-etheno-2-aminopurine (2). […] Spectra of the free ligand (3.5 μM) are given for comparison (points). Excitation spectrum of the protein, monitored at 310 nm, is given in black. Conditions: 40 mM phosphate, pH 7, at 20 °C. Concentration of protein was 10.1 μM (per subunit); that of the titrant was 0 to 3.5 μM. Lower panels: Fluorescence difference spectra, calculated from data presented on panels (a) and (b), (c) difference excitation (observed at 380 nm), (d) difference emission spectra, excited at 275 nm. Substrate concentrations are 0.17, 0.69, 1.37, 2.36 and 3.31 μM.
# Etheno-tubercidine (6) forms somewhat similar fluorescent complexes with the E. coli PNP. As shown below, FRET from the protein to the ligand is evident in the excitation spectra (Figure 11), and the ligand fluorescence blue shifted from 415 to ca. 390 nm (Figure 11b,c). In this case more than 60% of protein fluorescence is quenched when protein binding sites are saturated (cf. Figure 11). […]
# E. coli PNP [2] = biological target: T1, E. coli PNP; assay: Inhibition of phosphorolysis of purine nucleosides catalyzed by E. coli PNP; assay type: biochemical; settings: competitive inhibition of phosphorolysis of purine nucleosides; read-out: inhibition constant, Ki
# Procedure: (§1) Etheno-tubercidine (6) is therefore a good candidate to observe enzyme-ligand complexes by spectral methods, as shown below. No inhibition of the calf PNP was observed, at least in moderate concentrations (up to 50 μM) that we used.
# (§2) Enzymatic ribosylation reactions were carried out in 1 mL cuvettes (pathlength 4 mm) in ~50 mM HEPES buffer, pH 7.3, using 0.5 mM R1P as a ribose source. Reactions were followed fluorimetrically (see Section 2.4). On a larger scale (2–4 mg), the reactions were run in Eppendorf tubes, volume 2–3 mL, using either R1P (3–10 mM) or 7-methylguanosine as ribose sources. Products were purified by semi-preparative HPLC, concentrated and the final solutions kept frozen. Their structure has been confirmed by NMR (see Section 2.4 and Supplementary Materials) and by MS: comp. 3: m/z = 292.10385, comp. 4: m/z = 292.10400, comp. 5: m/z = 292.10398, calculated for C12H13N5O4 + H: 292.10403. Phosphorolysis reactions were run in 40–50 mM phosphate buffer, pH 7.0 or 6.5, and followed spectrally or fluorimetrically. Kinetic parameters were calculated by standard methods.
# [3] = Ionization constants (pKa), determined spectrophotometrically; assay type: physicochemical; settings: phosphate and/or acetate buffers, protonation, read-out: pKa (protonation)
# Procedure: Fluorescence spectra were measured on a Varian Eclipse instrument (Varian Corp., Palo Alto, CA, USA), and UV absorption kinetic experiments were performed on a Cary 5000 (Varian Corp., Palo Alto, CA, USA) thermostated spectrophotometer. Fluorescence yields were determined relative to tryptophan (0.15) or 1,N^6-ethenoadenosine in water (0.56, see ref. [2]). Emission spectra were measured in semi-micro cuvettes, pathlength 4 mm, to diminish the inner-filter effect. Typical spectral resolution was 2.5 nm. The ionization constants (pKa values) were determined spectrophotometrically using 20–50 mM phosphate and/or acetate buffers.
# calf PNP = biological target: T2, calf PNP (Bos taurus, UniProt P55859); assay: Inhibition of calf PNP; assay type: biochemical; settings: concentrations up to 50 μM
# T2 construct: made in house; host or cells: E. coli
# T2 sequence (P55859 1-289): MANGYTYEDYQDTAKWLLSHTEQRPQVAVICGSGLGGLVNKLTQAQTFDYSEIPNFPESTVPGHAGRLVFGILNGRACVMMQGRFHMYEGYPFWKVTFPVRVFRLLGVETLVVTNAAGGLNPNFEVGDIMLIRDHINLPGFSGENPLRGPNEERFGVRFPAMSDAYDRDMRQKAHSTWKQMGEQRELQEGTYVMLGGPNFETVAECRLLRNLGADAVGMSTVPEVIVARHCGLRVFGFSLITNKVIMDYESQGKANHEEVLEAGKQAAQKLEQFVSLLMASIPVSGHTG
# Procedure: as §1, §2
# T1 sequence (P0ABP8 2-239): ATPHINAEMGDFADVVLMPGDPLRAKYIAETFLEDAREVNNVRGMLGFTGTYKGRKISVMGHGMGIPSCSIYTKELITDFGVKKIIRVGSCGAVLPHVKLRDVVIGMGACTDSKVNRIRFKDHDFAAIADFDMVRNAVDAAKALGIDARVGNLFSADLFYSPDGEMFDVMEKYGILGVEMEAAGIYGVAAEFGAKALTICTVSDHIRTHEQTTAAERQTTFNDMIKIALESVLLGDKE
smiles,measurement,setting,value
"OC[C@H]1O[C@@H](n2ccc3c2ncn2ccnc32)[C@H](O)[C@@H]1O [Compound 6, 1,N^6-etheno-tubercidine]",protein fluorescence quenched at saturation of binding sites,E. coli PNP [1],more than 60%
same,Ki,E. coli PNP [2],~4.5 µM
same,pKa,[3],5.2
same,inhibition of the calf PNP,calf PNP,No inhibition
